In patent publication US9695155B2, “Herbicidal substituted pyrimidinyloxy benzene compounds” (E. I. DU PONT DE NEMOURS AND COMPANY, priority 2013, dated 2017):

Tests used:
Test in all cases: Test F preemergence
Conditions in all cases: 21 days, scale 0 to 100
[1] = test system: wild poinsettia; format: in vivo, Euphorbia heterophylla
Source text: (§1) Seeds of plant species selected from bermudagrass (Cynodon dactylon), surinam grass (Brachiaria decumbens), large (Lg) crabgrass (Digitaria sanguinalis), crabgrass, naked (naked crabgrass, Digitaria nuda), foxtail, green (green foxtail, Setaria viridis), johnsongrass (Sorghum halepense), kochia (Kochia scoparia), morningglory (pitted morningglory, Ipomoea lacunosa), nutsedge, purple (purple nutsedge, Cyperus rotundus), ragweed (common ragweed, Ambrosia elatior), mustard, black (black mustard, Brassica nigra), guineagrass (Panicum maximum), dallisgrass (Paspalum dilatatum), barnyardgrass (Echinochloa crus-galli), sandbur (southern sandbur, Cenchrus echinatus), sowthistle (common sowthistle, Sonchus oleraceous), Italian ryegrass (Lolium multiflorum), signalgrass (broadleaf signalgrass, Brachiaria platyphylla), dayflower (Virginia (VA) dayflower, Commelina virginica), bluegrass (annual bluegrass, Poa annua), quackgrass (Elytrigia repens), mallow (common mallow, Malva sylvestris), buckwheat, wild (wild buckwheat, Polygonum convolvulus), leafy spurge (Euphorbia esula), chickweed (common chickweed, Stellaria media), wild poinsettia (Euphorbia heterophylla), and pigweed (Amaranthus retroflexus) were planted into a blend of loam soil and sand and treated preemergence with test chemicals formulated in a non-phytotoxic solvent mixture which included a surfactant.
(§2) Treated plants and controls were maintained in a greenhouse for 21 days, after which time all species were compared to controls and visually evaluated. Plant response ratings, summarized in Table F, are based on a scale of 0 to 100 where 0 is no effect and 100 is complete control. A dash (-) response means no test result.

[2] = test system: chickweed; format: in vivo, Stellaria media
Source text: as §1, §2

[3] = test system: buckwheat, wild; format: in vivo, Polygonum convolvulus
Source text: as §1, §2

[4] = test system: mustard, black; format: in vivo, Brassica nigra
Source text: as §1, §2

[5] = test system: sowthistle; format: in vivo, Sonchus oleraceous
Source text: as §1, §2

N#Cc1cccc(Oc2ncc(Cl)cn2)c1-n1cc(OC(F)F)cn1 [Compound 97]
Plant response rating, Poinsettia, Wild ([1]; 16 g ai/ha): 10 | Plant response rating, Poinsettia, Wild ([1]; 31 g ai/ha): 20 | Plant response rating, Poinsettia, Wild ([1]; 62 g ai/ha): 75 | Plant response rating, Poinsettia, Wild ([1]; 125 g ai/ha): 98 | Plant response rating, Poinsettia, Wild ([1]; 250 g ai/ha): 98 | Plant response rating, Chickweed ([2]; 16 g ai/ha): 100 | Plant response rating, Chickweed ([2]; 31 g ai/ha): 100 | Plant response rating, Chickweed ([2]; 62 g ai/ha): 100 | Plant response rating, Chickweed ([2]; 125 g ai/ha): 100 | Plant response rating, Chickweed ([2]; 250 g ai/ha): 100 | Plant response rating, Buckwheat, Wild ([3]; 16 g ai/ha): 85 | Plant response rating, Buckwheat, Wild ([3]; 31 g ai/ha): 100 | Plant response rating, Buckwheat, Wild ([3]; 62 g ai/ha): 100 | Plant response rating, Buckwheat, Wild ([3]; 125 g ai/ha): 100 | Plant response rating, Buckwheat, Wild ([3]; 250 g ai/ha): 100 | Plant response rating, Mustard, Black ([4]; 16 g ai/ha): 90 | Plant response rating, Mustard, Black ([4]; 31 g ai/ha): 100 | Plant response rating, Mustard, Black ([4]; 62 g ai/ha): 100 | Plant response rating, Mustard, Black ([4]; 125 g ai/ha): 100 | Plant response rating, Mustard, Black ([4]; 250 g ai/ha): 100 | Plant response rating, Sowthistle ([5]; 16 g ai/ha): 100 | Plant response rating, Sowthistle ([5]; 31 g ai/ha): 100 | Plant response rating, Sowthistle ([5]; 62 g ai/ha): 100 | Plant response rating, Sowthistle ([5]; 125 g ai/ha): 100 | Plant response rating, Sowthistle ([5]; 250 g ai/ha): 100

N#Cc1cccc(Oc2ncc(F)cn2)c1-n1cc(C(F)(F)F)cn1 [Compound 79, 3-[(5-fluoro-2-pyrimidinyl)oxy]-2-[4-(trifluoromethyl)-1H-pyrazol-1-yl]benzonitrile]
Plant response rating, Poinsettia, Wild ([1]; 16 g ai/ha): 50 | Plant response rating, Poinsettia, Wild ([1]; 31 g ai/ha): 85 | Plant response rating, Poinsettia, Wild ([1]; 62 g ai/ha): 98 | Plant response rating, Poinsettia, Wild ([1]; 125 g ai/ha): 100 | Plant response rating, Poinsettia, Wild ([1]; 250 g ai/ha): 100 | Plant response rating, Chickweed ([2]; 16 g ai/ha): 98 | Plant response rating, Chickweed ([2]; 31 g ai/ha): 100 | Plant response rating, Chickweed ([2]; 62 g ai/ha): 100 | Plant response rating, Chickweed ([2]; 125 g ai/ha): 100 | Plant response rating, Chickweed ([2]; 250 g ai/ha): 100 | Plant response rating, Buckwheat, Wild ([3]; 16 g ai/ha): 98 | Plant response rating, Buckwheat, Wild ([3]; 31 g ai/ha): 100 | Plant response rating, Buckwheat, Wild ([3]; 62 g ai/ha): 100 | Plant response rating, Buckwheat, Wild ([3]; 125 g ai/ha): 100 | Plant response rating, Buckwheat, Wild ([3]; 250 g ai/ha): 100 | Plant response rating, Mustard, Black ([4]; 16 g ai/ha): 100 | Plant response rating, Mustard, Black ([4]; 31 g ai/ha): 100 | Plant response rating, Mustard, Black ([4]; 62 g ai/ha): 100 | Plant response rating, Mustard, Black ([4]; 125 g ai/ha): 100 | Plant response rating, Mustard, Black ([4]; 250 g ai/ha): 100 | Plant response rating, Sowthistle ([5]; 16 g ai/ha): 100 | Plant response rating, Sowthistle ([5]; 31 g ai/ha): 100 | Plant response rating, Sowthistle ([5]; 62 g ai/ha): 100 | Plant response rating, Sowthistle ([5]; 125 g ai/ha): 100 | Plant response rating, Sowthistle ([5]; 250 g ai/ha): 100
